Some test systems named below: SF-268 CNS; T-47D breast; NCI/ADR-RES ovarian; RXF 393 renal; SK-MEL-28 melanoma; OVCAR-3 ovarian; SK-MEL-5 melanoma; NCI-H226 lung.
Common to all, as to test: DTP human tumour cell line panel, 48 h

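Each compound was tested at five concentrations against cells in 96-well plates for 48 hours. GI50 = concentration required for 50% inhibition of growth. TGI: concentration producing complete growth inhibition.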

In general, GI50 refers to the concentration that inhibits growth by half. Broadly, the TGI is the concentration at which net growth stops. A lower TGI goes with more potent growth arrest.

With `O=C(Nc1ccccc1O)c1ccc(Oc2cccc(C(=O)Nc3ccccc3O)c2)cc1`, the GI50 with SF-268 CNS is 2.91 µM; with T-47D breast it was 3.13 µM; in the experiment with NCI/ADR-RES ovarian, 1.5 µM; in the experiment on RXF 393 renal it was 1.81 µM; in the experiment with SK-MEL-28 melanoma it was 1.84 µM; with OVCAR-3 ovarian, 3.28 µM. Besides, the GI50 with SK-MEL-5 melanoma was 1.13 µM; in the experiment on NCI-H226 lung, 2.06 µM. In addition, the TGI in the experiment with SF-268 CNS was 15 µM; in the experiment with T-47D breast, 10.1 µM; in the experiment with NCI/ADR-RES ovarian, 6.7 µM; with RXF 393 renal, 6.42 µM; in the experiment with SK-MEL-28 melanoma, 12.2 µM; in the experiment on OVCAR-3 ovarian it was 9.86 µM. For the same compound, the TGI in the experiment on SK-MEL-5 melanoma worked out at 2.85 µM; in the experiment with NCI-H226 lung, 10.8 µM.
On to `NS(=O)(=O)c1cccc(N=Cc2c(O)[nH]c3ccccc23)c1`, for which the GI50 in the experiment with SF-268 CNS, with T-47D breast, with NCI/ADR-RES ovarian, in the experiment with RXF 393 renal, with SK-MEL-28 melanoma and in the experiment on OVCAR-3 ovarian was above 25 µM in each case. The GI50 with SK-MEL-5 melanoma and in the experiment with NCI-H226 lung was above 25 µM in each case. Further, the TGI with SF-268 CNS, with T-47D breast, in the experiment with NCI/ADR-RES ovarian, in the experiment on RXF 393 renal, in the experiment with SK-MEL-28 melanoma and in the experiment on OVCAR-3 ovarian was above 25 µM in each case. Moreover, the TGI in the experiment with SK-MEL-5 melanoma and in the experiment on NCI-H226 lung was above 25 µM in each case.
Consider `Cc1c(C)[n+](=O)c(C)c(C)n1[O-]`, for which the GI50 with SF-268 CNS, in the experiment with T-47D breast, with NCI/ADR-RES ovarian, in the experiment with RXF 393 renal, with SK-MEL-28 melanoma and in the experiment with OVCAR-3 ovarian was above 100 µM in each case. Besides, the GI50 in the experiment with SK-MEL-5 melanoma and with NCI-H226 lung was above 100 µM throughout. Besides, the TGI in the experiment on SF-268 CNS, in the experiment with T-47D breast, in the experiment with NCI/ADR-RES ovarian, in the experiment on RXF 393 renal, with SK-MEL-28 melanoma and in the experiment with OVCAR-3 ovarian was above 100 µM throughout. Besides, the TGI in the experiment with SK-MEL-5 melanoma and in the experiment on NCI-H226 lung was above 100 µM each time.
Consider `NC1=NC(c2ccc(Cl)cc2)C2=C(N1)/C(=C/c1ccc(Cl)cc1)CCC2` (centres undefined), for which the GI50 in the experiment on SF-268 CNS was 7.35 µM; in the experiment with T-47D breast, 11.6 µM; with NCI/ADR-RES ovarian, 12.2 µM; with RXF 393 renal it was 2.05 µM; in the experiment with SK-MEL-28 melanoma, 17 µM; with OVCAR-3 ovarian, 5.76 µM. Moreover, the GI50 in the experiment on SK-MEL-5 melanoma is 5.51 µM; in the experiment with NCI-H226 lung, 4.25 µM. The total growth inhibition concentration (TGI) in the experiment on SF-268 CNS was above 38.9 µM; in the experiment on T-47D breast it was above 100 µM; with NCI/ADR-RES ovarian, above 100 µM; in the experiment with RXF 393 renal, 4.45 µM; in the experiment with SK-MEL-28 melanoma, 45.4 µM; in the experiment with OVCAR-3 ovarian it was 15.4 µM. In addition, the values for the TGI with SK-MEL-5 melanoma and in the experiment with NCI-H226 lung were 12.9 µM and 11.8 µM, respectively.
For the compound `COc1cc(/C=C2\CN(C)C/C(=C\c3cc(CN4CCCCC4)c(O)c(OC)c3)C2=O)cc(CN2CCCCC2)c1O`, the GI50 was 3.97 µM in the experiment with SF-268 CNS; 5.72 µM with T-47D breast; 6.24 µM in the experiment with NCI/ADR-RES ovarian; 2.01 µM in the experiment with RXF 393 renal; 11.6 µM in the experiment with SK-MEL-28 melanoma; 3 µM with OVCAR-3 ovarian. In addition, the values for the GI50 with SK-MEL-5 melanoma and in the experiment on NCI-H226 lung were 13 µM and 10.5 µM, respectively. Further, the TGI is 17.4 µM in the experiment with SF-268 CNS; 24 µM with T-47D breast; above 100 µM in the experiment with NCI/ADR-RES ovarian; 6.86 µM with RXF 393 renal; 24.5 µM with SK-MEL-28 melanoma; 10.4 µM in the experiment with OVCAR-3 ovarian. Moreover, the values for the TGI with SK-MEL-5 melanoma and in the experiment on NCI-H226 lung were 26.1 µM and 25.9 µM, respectively.
As to `CCCCCCCCCCCCSC(=N)N`, the GI50 was 7.82 µM in the experiment on SF-268 CNS; 2.03 µM in the experiment on T-47D breast; 10.5 µM in the experiment on NCI/ADR-RES ovarian; 6.64 µM in the experiment with RXF 393 renal; 13.7 µM with SK-MEL-28 melanoma; 10.3 µM in the experiment on OVCAR-3 ovarian. Also, the GI50 with SK-MEL-5 melanoma was 12.6 µM; with NCI-H226 lung, 18.5 µM. For the same compound, the TGI with SF-268 CNS is 25.8 µM; in the experiment with T-47D breast, 4.34 µM; in the experiment with NCI/ADR-RES ovarian it was 26.3 µM; in the experiment with RXF 393 renal it was 26.6 µM; in the experiment with SK-MEL-28 melanoma, 27.9 µM; with OVCAR-3 ovarian, 26.2 µM. The values for the TGI in the experiment on SK-MEL-5 melanoma and in the experiment with NCI-H226 lung were 28.2 µM and 44.5 µM, respectively.
For `O=C(N/N=C/c1ccc([N+](=O)[O-])cc1)c1ccc2nc(-c3ccc(Cl)cc3)[nH]c2c1`, the GI50 with SF-268 CNS was 4.97 µM; in the experiment with T-47D breast, 2.29 µM; in the experiment with NCI/ADR-RES ovarian, 12.6 µM; with RXF 393 renal, 2.03 µM; with SK-MEL-28 melanoma, 2.6 µM; in the experiment with OVCAR-3 ovarian, 3.25 µM. Moreover, the GI50 in the experiment on SK-MEL-5 melanoma was 2.11 µM; in the experiment with NCI-H226 lung, 5.03 µM. Moreover, the concentration for total growth inhibition (TGI) with SF-268 CNS was 24.3 µM; with T-47D breast, 7.21 µM; with NCI/ADR-RES ovarian, above 100 µM; in the experiment with RXF 393 renal, 7.07 µM; with SK-MEL-28 melanoma it was 10.3 µM; in the experiment on OVCAR-3 ovarian, 8.23 µM. Further, the TGI turned out to be 4.78 µM in the experiment with SK-MEL-5 melanoma and 31.2 µM in the experiment with NCI-H226 lung.
As to `COc1ccc(-c2ccc(-c3ccc(-c4ccc(C(=N)N)cc4)s3)s2)cc1OC`, the GI50 in the experiment with SF-268 CNS is 19.5 µM; in the experiment with T-47D breast, 3.09 µM; in the experiment with NCI/ADR-RES ovarian, 2.51 µM; in the experiment with RXF 393 renal it was 11.2 µM; in the experiment on SK-MEL-28 melanoma, 18.1 µM; in the experiment with OVCAR-3 ovarian, 0.369 µM. The GI50 was 14.7 µM with SK-MEL-5 melanoma and 18.5 µM in the experiment with NCI-H226 lung. Moreover, the TGI in the experiment with SF-268 CNS was 50.9 µM; with T-47D breast, 31.8 µM; in the experiment on NCI/ADR-RES ovarian it was 6.54 µM; in the experiment with RXF 393 renal, 34.6 µM; in the experiment on SK-MEL-28 melanoma, 40.6 µM; in the experiment with OVCAR-3 ovarian it was 1.47 µM. For the same compound, the TGI is 60.2 µM in the experiment on SK-MEL-5 melanoma and 58.4 µM with NCI-H226 lung.
As for `O=c1cc(-c2ccccc2)[nH]n1-c1nc2ccccc2[nH]1`, the GI50 was 8.67 µM in the experiment with SF-268 CNS; 4.41 µM in the experiment on T-47D breast; 3.68 µM in the experiment on NCI/ADR-RES ovarian; 3.94 µM with RXF 393 renal; 3.61 µM in the experiment on SK-MEL-28 melanoma; 4.46 µM with OVCAR-3 ovarian. The figures for the GI50 in the experiment on SK-MEL-5 melanoma and with NCI-H226 lung were 5.18 µM and 9.49 µM, respectively. In addition, the TGI in the experiment with SF-268 CNS is above 100 µM; with T-47D breast it was above 100 µM; with NCI/ADR-RES ovarian, above 100 µM; in the experiment on RXF 393 renal, 34.8 µM; with SK-MEL-28 melanoma it was above 100 µM; with OVCAR-3 ovarian, above 100 µM. Moreover, the TGI is 23.4 µM with SK-MEL-5 melanoma and above 100 µM in the experiment on NCI-H226 lung.
